Test [1] has as its target T1, SIRT1 (Homo sapiens, UniProt Q96EB6).
T1 sequence (Q96EB6 1-747): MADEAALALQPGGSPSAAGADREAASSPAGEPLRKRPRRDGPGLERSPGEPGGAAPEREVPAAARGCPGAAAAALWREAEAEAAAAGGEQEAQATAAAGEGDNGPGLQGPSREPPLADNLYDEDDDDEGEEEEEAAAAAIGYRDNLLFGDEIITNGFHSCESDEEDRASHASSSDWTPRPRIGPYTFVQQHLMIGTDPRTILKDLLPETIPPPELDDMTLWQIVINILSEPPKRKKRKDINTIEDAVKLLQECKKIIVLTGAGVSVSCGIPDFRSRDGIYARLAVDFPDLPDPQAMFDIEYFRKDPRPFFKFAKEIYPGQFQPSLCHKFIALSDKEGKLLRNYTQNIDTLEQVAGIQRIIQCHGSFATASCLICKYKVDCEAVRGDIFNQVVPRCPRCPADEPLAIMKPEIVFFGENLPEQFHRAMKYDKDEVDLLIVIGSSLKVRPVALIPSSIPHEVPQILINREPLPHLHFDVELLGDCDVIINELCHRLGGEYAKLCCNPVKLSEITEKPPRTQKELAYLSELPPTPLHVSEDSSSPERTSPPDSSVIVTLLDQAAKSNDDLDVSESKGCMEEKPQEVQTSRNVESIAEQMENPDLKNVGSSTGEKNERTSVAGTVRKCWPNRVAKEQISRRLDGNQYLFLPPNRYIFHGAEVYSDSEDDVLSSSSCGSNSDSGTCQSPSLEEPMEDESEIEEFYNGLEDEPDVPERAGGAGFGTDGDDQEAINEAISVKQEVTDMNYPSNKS
In words: TAMRA based mass spectrometry assay of SIRT1 activity. It is filed as biochemical. The following applies: TAMRA peptide substrate; for TAMRA EC1.5: concentration giving 150% activation of SIRT1; for Emax: percent maximum fold activation, read-out: TAMRA % Fold Act. In short, it runs like this: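 Recombinant N-terminal His-tagged human SIRT1 (10 nM, E. coli) incubated 25 min at 25 °C with 0.5 μM 5TMR-labelled p53-derived acetyl-peptide and 120 μM βNAD+ in Tris-acetate pH 8 buffer with DTT and 0.05% BSA, compound at varying concentrations. Stopped with formic acid; deacetylated peptide or OAADPR measured by mass spectrometry relative to DMSO controls.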

For test [2], the target named is T1, SIRT1. Description: Trp mass spectrometry assay of SIRT1 activity. To be noted: Trp peptide substrate; for Trp EC1.5: concentration giving 150% activation of SIRT1; for Emax: percent maximum fold activation, read-out: Trp % Fold Act. It is filed as biochemical. In short, it runs like this:
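His-tagged SIRT1 expressed in E. coli BL21(DE3), 10 nM, incubated 25 min at 25° C. with 0.5 μM Ac-RHKK(Ac)W-NH2 peptide and 120 μM βNAD+ in 50 mM HEPES pH 7.5, […], 1 mM DTT, 0.05% BSA; formic acid stop. OAADPR or deacetylated peptide measured by mass spectrometry; EC1.5 and percent maximum activation versus DMSO control.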

Some results are limits rather than exact numbers.

In the case of `O=C(Nc1ccncn1)c1cnn2ccc(-c3ccccc3OC(F)(F)F)nc12` [Compound 533, N-(pyrimidin-4-yl)-5-(2-(trifluoromethoxy)phenyl)pyrazolo[1,5-a]pyrimidine-3-carboxamide], in test [1], the “TAMRA EC1.5” value is “A (EC1.5<1 μM)” and the Emax was at least 350%. Also, in test [2], the “Trp EC1.5” value is “B (EC1.5 1-25 μM)” and the Emax was below 350%.

In the case of `O=C(Nc1cccc(CN2CCOCC2)n1)c1cnn2ccc(-c3ccccc3OC(F)(F)F)nc12` [Compound 535], in test [1], the “TAMRA EC1.5” value was “A (EC1.5<1 μM)” and the Emax is at least 350%. In test [2], the “Trp EC1.5” value is recorded as “A (EC1.5<1 μM)” and the Emax was at least 350%.

`COc1cccc(NC(=O)c2cnn3ccc(-c4ccccc4OC(F)(F)F)nc23)n1` [Compound 536]: in test [1], the “TAMRA EC1.5” value is given as “A (EC1.5<1 μM)” and the Emax was at least 350%. In test [2], the “Trp EC1.5” value was “A (EC1.5<1 μM)” and the Emax is below 350%.

Regarding `Cc1cc(-c2ccccc2C(F)(F)F)nn2c(C(=O)Nc3ccncc3F)cnc12` [Compound 541], in test [1], the “TAMRA EC1.5” value is reported as “A (EC1.5<1 μM)” and the Emax was at least 350%. Moreover, in test [2], the “Trp EC1.5” value was “B (EC1.5 1-25 μM)” and the Emax was at least 350%.

As for `Cc1cc(-c2ccccc2C(F)(F)F)nn2c(C(=O)Nc3ccc(F)cn3)cnc12` [Compound 542], in test [1], the “TAMRA EC1.5” value is recorded as “A (EC1.5<1 μM)” and the Emax was at least 350%. Moreover, in test [2], the “Trp EC1.5” value is reported as “B (EC1.5 1-25 μM)” and the Emax was below 350%.

As to `Cc1nc2c(C)cc(-c3ccccc3OC(F)(F)F)nn2c1C(=O)Nc1cccc(N2CC3(COC3)C2)n1` [Compound 545], in test [1], the “TAMRA EC1.5” value was “A (EC1.5<1 μM)” and the Emax was at least 350%. Further, in test [2], the “Trp EC1.5” value was “A (EC1.5<1 μM)” and the Emax is at least 350%.

As to `Cc1nn2ccc(-c3ccccc3C(F)(F)F)nc2c1C(=O)Nc1cccnc1` [Compound 549], in test [1], the “TAMRA EC1.5” value was “A (EC1.5<1 μM)” and the Emax is at least 350%. In test [2], the “Trp EC1.5” value is given as “B (EC1.5 1-25 μM)” and the Emax was at least 350%.

Turning to `COc1cccc(NC(=O)c2c(C)nn3ccc(-c4ccccc4C(F)(F)F)nc23)n1` [Compound 551, N-(6-methoxypyridin-2-yl)-2-methyl-5-(2-(trifluoromethyl)phenyl)pyrazolo[1,5-a]pyrimidine-3-carboxamide], in test [1], the “TAMRA EC1.5” value is on record as “A (EC1.5<1 μM)” and the Emax is at least 350%. In addition, in test [2], the “Trp EC1.5” value is “A (EC1.5<1 μM)” and the Emax is at least 350%.

Turning to `Cc1nn2ccc(-c3ccccc3C(F)(F)F)nc2c1C(=O)Nc1cccc(N2CCOCC2)n1` [Compound 552], in test [1], the “TAMRA EC1.5” value was “A (EC1.5<1 μM)” and the Emax was at least 350%. Besides, in test [2], the “Trp EC1.5” value is given as “A (EC1.5<1 μM)” and the Emax was at least 350%.

`O=C(Nc1cncc(OC[C@H](O)CO)n1)c1cnc2ccc(-c3ccccc3C(F)(F)F)nn12` [Compound 555]: in test [1], the “TAMRA EC1.5” value is recorded as “A (EC1.5<1 μM)” and the Emax is at least 350%. Moreover, in test [2], the “Trp EC1.5” value was “A (EC1.5<1 μM)” and the Emax was at least 350%.

For `Cc1cc(NC(=O)c2cnc3ccc(-c4ccccc4C(F)(F)F)nn23)cc(OC[C@@H](O)CO)n1` [Compound 558], in test [1], the “TAMRA EC1.5” value was “A (EC1.5<1 μM)” and the Emax is at least 350%. In test [2], the “Trp EC1.5” value is “A (EC1.5<1 μM)” and the Emax was at least 350%.

Consider `O=C(Nc1ncccn1)c1cnn2ccc(-c3ccccc3OC(F)(F)F)nc12` [Compound 559], for which, in test [1], the “TAMRA EC1.5” value is listed as “B (EC1.5 1-25 μM)” and the Emax is below 350%. Besides, in test [2], the “Trp EC1.5” value is “B (EC1.5 1-25 μM)” and the Emax was at least 350%.

For the compound `Cc1nc2c(C)cc(-c3ccccc3C(F)(F)F)nn2c1C(=O)NCc1ccccn1` [Compound 561], in test [1], the “TAMRA EC1.5” value is “B (EC1.5 1-25 μM)” and the Emax was below 350%. Also, in test [2], the “Trp EC1.5” value was “B (EC1.5 1-25 μM)” and the Emax was at least 350%.
